Measurements: PMC7318243, “Computationally Empowered Workflow Identifies Novel Covalent Allosteric Binders for KRAS^G12C” (Chemmedchem, 2020)

Key:
KRAS^WT = target: T1, KRAS^WT (Homo sapiens, UniProt P01116); assay: Biochemical assay: KRAS^WT activation by SOS1CAT (HTRF, fluorescent GTP loading); conditions: 180 min pre-incubation with KRAS before addition of SOS1
T1 construct: The proteins KRASWT (aa 1–169, wild type), SOS1CAT (aa 564–); made in house
Procedure: (§1) One of the most synthetically accessible compounds, 1,6‐naphthyridin‐5(6H)‐one (1), was prepared (Table 1; Scheme S1). Structurally close to 1, isoquinolin‐1(2H)‐one 2 derivatives were also considered for the exploration of structure‐activity relationships (SAR). To measure the proportion of inhibitor reacting with Cys12 of the KRAS^G12C mutant, the bound/unbound protein ratio was quantified by mass spectrometry (MS). Then, the inhibition potency of these compounds towards KRAS^G12C was evaluated in biochemical assays measuring the activation of GDP‐bound KRAS^G12C or KRAS^WT by SOS1.19 […]
(§2) 3.3 Biochemical activity assays
(§3) Measurement of (i) KRASG12C activation by SOS1CAT and (ii) wild-type KRAS activation by SOS1CAT was performed following the previously described protocol, [19] with a pre-incubation time of the test compound with KRAS proteins extended to 180 min before addi tion of SOS1.
(§4) This assay quantifies SOS1 CAT mediated loading of KRAS G12C–GDP with a fluorescent GTP analogue. Detection of successful loading was achieved by measuring resonance energy transfer from anti-GST-terbium (FRET donor) bound to GST -KRASG12C to the loaded fluorescent GTP analogue (FRET acceptor). The fluorescent GTP analogue EDA –GTP–DY-647P1 [2'/3'-O-(2-aminoethyl-carbamoyl)guanosine-5'-triphosphate labelled with DY-647P1 (Dyomics GmbH, Germany)] was synthesized by Jena Bioscience (Germany) a nd supplied as a 1 mM aqueous solution. A KRASG12C working solution was prepared in assay buffer [10 mM HEPES pH 7.4 (AppliChem), 150 mM NaCl (Sigma), 5 mM MgCl2 (Sigma), 1 mM DTT (Thermo Fisher), 0.05% BSA Fraction V pH 7.0 (ICN Biomedicals), 0.0025% (v/v) Igepal (Sigma)] containing 100 nM GST-KRASG12C and 2 nM anti-GST-terbium (Cisbio, France). A SOS1 CAT working solution was prepared in an assay buffer containing 20 nM SOS1CAT and 200 nM EDA–GTP–DY-647P1. An inhibitor control solution was prepared in an assay buffer containing 200 nM EDA–GTP–DY-647P1 without […]
(§5) SOS1CAT. All steps of the assay were performed at 20 °C. A volume of 2.5 µL of the KRASG12C working solution was added to all wells of the test plate using a Multidrop dispenser (Thermo LabSystems). After 180 min, 2.5 µL of the SOS1CAT working solution was added to all wells, except for the inhibitor control solution wells. After 30 min incubation, HTRF was measured.
In the KRASWT activation by SOS1cat assay, human SOS1CAT mediated loading of GST-KRASWT– GDP was quantified with a fluorescent GTP analogue. The assay was performed as described above for the KRASG12C activation. […]
(§6) SYNAPT G2-S quadrupole time-of-flight mass spectrometer connected to a Waters nanoAcquity UPLC system. Samples were loaded on a 2.1 x 5 mm mass prep C4 guard column (Waters) and desalted with a short grad ient (3 min) of increasing concentrations of acetonitrile at a flow rate of 100 µL/min. Spectra were analyzed by using MassLynx v4.1 software and deconvoluted with the MaxEnt1 algorithm. Percent of conversion was determined by the ratio of signal intensiti es of apo-KRAS and KRAS + inhibitor.

KRAS^G12C = target: T2, KRAS^G12C (Homo sapiens, UniProt P01116, G12C); assay: Biochemical assay: KRAS^G12C activation by SOS1CAT (HTRF, fluorescent GTP loading); conditions: for IC50: 180 min pre-incubation with KRAS before addition of SOS1
T2 construct: KRASG12C (aa 1–169, G12C) were produced for the biochemical assay; made in house
Procedure: as §1, §2, §3, §4
as §5, with “measured. […]” for “measured.”
as §6

[1] = target: T3, KRAS^G12C (recombinant KRAS mutant G12C, C51S, C80L, C118S) (Homo sapiens, UniProt P01116, C118S/C51S/C80L/G12C); assay: Covalent binding assay by mass spectrometry (intact mass, % covalent adduct); conditions: for MS assay [% binding] (KRAS^G12C bound fraction): 25 µM protein, 25 µM compound, room temperature, 2 h
T3 construct: made in house
Procedure: as §1
3.4 Covalent binding assay by mass spectrometry
The percentage of covalent adduct formation at KRAS G12C was determined by intact mass determination. To this end, 25 µM recombinant KRAS mutant (G12C , C51S, C80L, C118S) was incubated with 25 µM compound (1% v/v DMSO final concentration) in 50 mM Tris, pH 8.0, 50 mM NaCl at room temperature for 2 h. Reaction mixture (20 µL) was acidified by addi tion of 4% v/v TFA (4 µL). LC-MS analysis was performed using a Waters SYNAPT G2 -S quadrupole time -of-flight mass spectrometer connected to a Waters nanoA CQUITY UPLC system. Samples were loaded onto a 2.1 × 5 mm MassPrep C4 guard column (Waters) and desalted with a short gradient (3 min) of increasing concentration of acetonitrile at a flow rate of 100 µL/min. Spectra were analyzed by using MassLynx v4.1 software and deconvoluted with the MaxEnt1 algorithm. Percent conversion was determined by the ratio of signal intensities of […] and KRASG12C + inhibitor. […]

SMILES | IC50 (KRAS^WT) [µM] | IC50 (KRAS^G12C) [µM] | MS assay [% binding] (KRAS^G12C bound fraction) [1] [%] | KRAS^G12C activity, in words (KRAS^G12C) | Ability to bind / react with Cys12 of KRAS^G12C, in words [1]
C=CC(=O)N1CCC(c2cc3ccc(-c4ccc(F)cc4F)cc3c(=O)[nH]2)C1 (stereo not drawn) [Compound 3, 7-(2,4-Difluorophenyl)-3-[1-(prop-2-enoyl)pyrrolidin-3-yl]isoquinolin-1(2H)-one] | > 20 | 5 | 34 | – | –
C=CC(=O)N1CCC(c2cc3ccc(-c4cc(F)cc(F)c4)cc3c(=O)[nH]2)C1 (stereo not drawn) [Compound 4, 7-(3,5-Difluorophenyl)-3-[1-(prop-2-enoyl)pyrrolidin-3-yl]isoquinolin-1(2H)-one] | > 20 | > 20 | 0 | – | –
C=CC(=O)N1CCC(c2cc3ccc(-c4ccccc4CC)cc3c(=O)[nH]2)C1 (stereo not drawn) [Compound 5, 7-(2-Ethylphenyl)-3-[1-(prop-2-enoyl)pyrrolidin-3-yl]isoquinolin-1(2H)-one] | > 20 | 8 | 60 | – | –
C=CC(=O)N1CCC(c2cc3ccc(-c4cccc5ncccc45)cc3c(=O)[nH]2)C1 (stereo not drawn) [Compound 6, 3-[1-(Prop-2-enoyl)pyrrolidin-3-yl]-7-(quinolin-5-yl)isoquinolin-1(2H)-one] | > 20 | > 16 | 20 | – | –
C=CC(=O)N1CCC(c2cc3cc(Cl)c(-c4c(O)cccc4F)cc3c(=O)[nH]2)C1 (stereo not drawn) [Compound 7, 6-Chloro-7-(2-fluoro-6-hydroxyphenyl)-3-[1-(prop-2-enoyl)pyrrolidin-3-yl]isoquinolin-1(2H)-one] | > 20 | 14.6 | 51 | – | –
C=CC(=O)N1CCC(c2cc3ccc(-c4c(O)cccc4F)cc3c(=O)[nH]2)CC1 [Compound 8] | > 20 | > 20 | 0 | inactive | –
C=CC(=O)N1CCCC(c2cc3ccc(-c4c(O)cccc4F)cc3c(=O)[nH]2)C1 (stereo not drawn) [Compound 9] | > 20 | > 20 | 0 | inactive | –
C=CC(=O)N1CCC(c2cc3ccc(-c4c(O)cccc4F)cc3c(=O)n2C)C1 (stereo not drawn) [Compound 10] | > 20 | > 20 | 11 | inactive | inability to bind KRAS^G12C
C=CC(=O)N1CCC(c2nc3ccc(-c4c(O)cccc4F)cc3c(=O)[nH]2)C1 (stereo not drawn) [Compound 11, 6-(2-Fluoro-6-hydroxyphenyl)-2-[1-(prop-2-enoyl)pyrrolidin-3-yl]quinazolin-4(3H)-one] | > 20 | 4.9 | 59 | – | –
C=CC(=O)N1CCC(c2cc3cc(O)c(-c4ncccc4F)cc3c(=O)[nH]2)C1 (stereo not drawn) [Compound 12] | – | – | 0 | – | unable to react with Cys12 of KRAS^G12C
